In the NIST ThermoML archive (doi:10.1021/acs.jced.8b00201):

Experiment: xn = mol fraction of the nth substance listed
Details: 100 kPa, Liquid; for viscosity: Concentric cylinders viscometry; for mass density: Vibrating tube method

O=C1CCCCC1 [cyclohexanone] + CCCCCCO
Details | mass density [kg/m3] | viscosity [mPa·s]
293.15 K, x1 = 0.0818 | 827.6 | 4.66
293.15 K, x1 = 0.1594 | 836.2 | 4.06
293.15 K, x1 = 0.2401 | 845.5 | 3.55
293.15 K, x1 = 0.3467 | 858.2 | 2.97
293.15 K, x1 = 0.4439 | 870.2 | 2.55
293.15 K, x1 = 0.564 | 885.7 | 2.18
293.15 K, x1 = 0.6501 | 897.3 | 2.02
293.15 K, x1 = 0.7381 | 909.5 | 1.97
293.15 K, x1 = 0.8512 | 925.9 | 2
293.15 K, x1 = 0.9426 | 939.8 | 2.13
293.15 K, x1 = 1 | 948.8 | 2.3
298.15 K, x1 = 0.0818 | 823.8 | 4.03
298.15 K, x1 = 0.1594 | 832.2 | 3.54
298.15 K, x1 = 0.2401 | 841.3 | 3.12
298.15 K, x1 = 0.3467 | 853.7 | 2.63
298.15 K, x1 = 0.4439 | 865.5 | 2.3
298.15 K, x1 = 0.564 | 880.7 | 1.98
298.15 K, x1 = 0.6501 | 892.1 | 1.86
298.15 K, x1 = 0.7381 | 904.2 | 1.81
298.15 K, x1 = 0.8512 | 920.5 | 1.84
298.15 K, x1 = 0.9426 | 934.7 | 1.95
298.15 K, x1 = 1 | 943.1 | 2.09
303.15 K, x1 = 0.0818 | 820 | 3.47
303.15 K, x1 = 0.1594 | 828.3 | 3.07
303.15 K, x1 = 0.2401 | 837.2 | 2.72
303.15 K, x1 = 0.3467 | 849.5 | 2.33
303.15 K, x1 = 0.4439 | 861.1 | 2.05
303.15 K, x1 = 0.564 | 876.2 | 1.8
303.15 K, x1 = 0.6501 | 887.5 | 1.71
303.15 K, x1 = 0.7381 | 899.5 | 1.67
303.15 K, x1 = 0.8512 | 915.6 | 1.7
303.15 K, x1 = 0.9426 | 929.8 | 1.79
303.15 K, x1 = 1 | 938.2 | 1.91
308.15 K, x1 = 0.0818 | 816.3 | 3.04
308.15 K, x1 = 0.1594 | 824.4 | 2.71
308.15 K, x1 = 0.2401 | 833.2 | 2.41
308.15 K, x1 = 0.3467 | 845.3 | 2.09
308.15 K, x1 = 0.4439 | 856.8 | 1.87
308.15 K, x1 = 0.564 | 871.8 | 1.67
308.15 K, x1 = 0.6501 | 883 | 1.59
308.15 K, x1 = 0.7381 | 894.9 | 1.55
308.15 K, x1 = 0.8512 | 911 | 1.58
308.15 K, x1 = 0.9426 | 925.1 | 1.64
308.15 K, x1 = 1 | 933.5 | 1.75
313.15 K, x1 = 0.0818 | 812.4 | 2.66
313.15 K, x1 = 0.1594 | 820.5 | 2.39
313.15 K, x1 = 0.2401 | 829.2 | 2.14
313.15 K, x1 = 0.3467 | 841.1 | 1.86
313.15 K, x1 = 0.4439 | 852.5 | 1.68
313.15 K, x1 = 0.564 | 867.3 | 1.51
313.15 K, x1 = 0.6501 | 878.5 | 1.45
313.15 K, x1 = 0.7381 | 890.3 | 1.42
313.15 K, x1 = 0.8512 | 906.3 | 1.45
313.15 K, x1 = 0.9426 | 920.4 | 1.51
313.15 K, x1 = 1 | 928.8 | 1.6
318.15 K, x1 = 0.0818 | 808.7 | 2.33
318.15 K, x1 = 0.1594 | 816.7 | 2.1
318.15 K, x1 = 0.2401 | 825.3 | 1.9
318.15 K, x1 = 0.3467 | 837.1 | 1.68
318.15 K, x1 = 0.4439 | 848.4 | 1.52
318.15 K, x1 = 0.564 | 863.1 | 1.38
318.15 K, x1 = 0.6501 | 874.2 | 1.33
318.15 K, x1 = 0.7381 | 886 | 1.31
318.15 K, x1 = 0.8512 | 901.9 | 1.33
318.15 K, x1 = 0.9426 | 916 | 1.39
318.15 K, x1 = 1 | 924.4 | 1.46
323.15 K, x1 = 0.0818 | 804.9 | 2.05
323.15 K, x1 = 0.1594 | 812.8 | 1.86
323.15 K, x1 = 0.2401 | 821.4 | 1.7
323.15 K, x1 = 0.3467 | 833.2 | 1.51
323.15 K, x1 = 0.4439 | 844.5 | 1.39
323.15 K, x1 = 0.564 | 859.2 | 1.28
323.15 K, x1 = 0.6501 | 870.3 | 1.23
323.15 K, x1 = 0.7381 | 882.2 | 1.22
323.15 K, x1 = 0.8512 | 898.1 | 1.23
323.15 K, x1 = 0.9426 | 912.2 | 1.27
323.15 K, x1 = 1 | 920.7 | 1.34
